Data taken from publication PMC8286840, “Identifying SARS-CoV-2 antiviral compounds by screening for small molecule inhibitors of Nsp3 papain-like protease” (Biochemical Journal, 2021).
Counter-ions that a name gives are not always drawn. Like-named read-outs stand apart in the source and are kept apart here. Where a SMILES comes first, the peptide text is derived from it. [ ]: non-standard residue; d: D form. The star is where a group is joined. Sta = CC(C)C[C@H](N)[C@@H](O)CC(=O)O; Isovaleryl = CC(C)CC(=O)*

Columns and labels:
[1] = molecular target: T1, SARS-CoV-2 PLpro (nsp3 1564–1878) (Severe acute respiratory syndrome coronavirus 2, UniProt P0DTD1); experiment: biochemical; parameters: FRET-quenched peptide (Pro3) cleavage by PLpro, 10 min pre-incubation, slope over 20 min, normalised to no-compound control; conditions: low concentration screen, read-out: % of control remaining
[2] = molecular target: T1, SARS-CoV-2 PLpro (nsp3 1564–1878); experiment: biochemical; parameters: FRET-quenched peptide (Pro3) cleavage by PLpro, 10 min pre-incubation, slope over 20 min, normalised to no-compound control; conditions: high concentration screen, read-out: % of control remaining

O=C1C=C2C(=CCOC2O)O1 (stereo not shown) [Patulin]
remaining activity at 1.25 µM ([1]; Well no.=3543): 105%
remaining activity at 3.75 µM ([2]; Well no.=3543): 103%

Cc1ccc(Nc2nccc(N(C)c3ccc4c(C)n(C)nc4c3)n2)cc1S(N)(=O)=O [Pazopanib HCl]
remaining activity at 1.25 µM ([1]; Well no.=4613): 110%
remaining activity at 3.75 µM ([2]; Well no.=4613): 107%

Cc1ccc(Nc2nccc(N(C)c3ccc4c(C)n(C)nc4c3)n2)cc1S(N)(=O)=O [Pazopanib]
remaining activity at 1.25 µM ([1]; Well no.=2841): 103%
remaining activity at 3.75 µM ([2]; Well no.=2841): 103%

C[C@H]1COc2c(C3(N)CC3)c(F)cc3c(=O)c(C(=O)O)cn1c23 [Pazufloxacin]
remaining activity at 1.25 µM ([1]; Well no.=2095): 97.7%
remaining activity at 3.75 µM ([2]; Well no.=2095): 98.2%

OC1c2ccccc2N=C2CCCN21 (stereo not shown) [Peganole]
remaining activity at 1.25 µM ([1]; Well no.=3541): 95.9%
remaining activity at 3.75 µM ([2]; Well no.=3541): 104%

Nc1nc2[nH]cc(CCc3ccc(C(=O)N[C@@H](CCC(=O)O)C(=O)O)cc3)c2c(=O)[nH]1 [Pemetrexed (Alimta)]
remaining activity at 1.25 µM ([1]; Well no.=4677): 98.1%
remaining activity at 3.75 µM ([2]; Well no.=4677): 98.7%

Nc1nc2[nH]cc(CCc3ccc(C(=O)N[C@@H](CCC(=O)O)C(=O)O)cc3)c2c(=O)[nH]1 [Pemetrexed (disodium hemipenta hydrate)]
remaining activity at 1.25 µM ([1]; Well no.=7604): 95.1%
remaining activity at 3.75 µM ([2]; Well no.=7604): 95.6%

Nc1nc2[nH]cc(CCc3ccc(C(=O)N[C@@H](CCC(=O)O)C(=O)O)cc3)c2c(=O)[nH]1 [Pemetrexed (disodium)]
remaining activity at 1.25 µM ([1]; Well no.=7500): 102%
remaining activity at 3.75 µM ([2]; Well no.=7500): 93.5%

Nc1nc2[nH]cc(CCc3ccc(C(=O)N[C@@H](CCC(=O)O)C(=O)O)cc3)c2c(=O)[nH]1 [Pemetrexed Disodium Hydrate]
remaining activity at 1.25 µM ([1]; Well no.=8732): 96.6%
remaining activity at 3.75 µM ([2]; Well no.=8732): 97.8%

Nc1nc2[nH]cc(CCc3ccc(C(=O)N[C@@H](CCC(=O)O)C(=O)O)cc3)c2c(=O)[nH]1 [Pemetrexed]
remaining activity at 1.25 µM ([1]; Well no.=8316): 103%
remaining activity at 3.75 µM ([2]; Well no.=8316): 101%

Cc1cccn2c(=O)c(-c3nnn[nH]3)cnc12 [Pemirolast (potassium)]
remaining activity at 1.25 µM ([1]; Well no.=7611): 98.6%
remaining activity at 3.75 µM ([2]; Well no.=7611): 96.7%

CN1C(C)(C)CCCC1(C)C [Pempidine tartrate]
remaining activity at 1.25 µM ([1]; Well no.=1052): 94%
remaining activity at 3.75 µM ([2]; Well no.=1052): 95%

Nc1nc(O)c2ncn(CCC(CO)CO)c2n1 [Penciclovir]
remaining activity at 1.25 µM ([1]; Well no.=2099): 97.6%
remaining activity at 1.25 µM ([1]; Well no.=8002): 105%
remaining activity at 3.75 µM ([2]; Well no.=2099): 98.9%
remaining activity at 3.75 µM ([2]; Well no.=8002): 102%

CCCCCCCCCCCCCCC(=O)O [Pentadecanoic acid]
remaining activity at 1.25 µM ([1]; Well no.=4588): 95%
remaining activity at 1.25 µM ([1]; Well no.=7021): 110%
remaining activity at 3.75 µM ([2]; Well no.=4588): 95.6%
remaining activity at 3.75 µM ([2]; Well no.=7021): 103%

N=C(N)c1ccc(OCCCCCOc2ccc(C(=N)N)cc2)cc1 [Pentamidine HCl]
remaining activity at 1.25 µM ([1]; Well no.=4648): 98.3%
remaining activity at 3.75 µM ([2]; Well no.=4648): 98.1%

N=C(N)c1ccc(OCCCCCOc2ccc(C(=N)N)cc2)cc1 [Pentamidine isethionate]
remaining activity at 1.25 µM ([1]; Well no.=996): 101%
remaining activity at 3.75 µM ([2]; Well no.=996): 101%

N=C(N)c1ccc(OCCCCCOc2ccc(C(=N)N)cc2)cc1 [Pentamidine]
remaining activity at 1.25 µM ([1]; Well no.=1766): 97.3%
remaining activity at 3.75 µM ([2]; Well no.=1766): 99.6%

C[N+]1(CCCCC[N+]2(C)CCCC2)CCCC1 [Pentolinium di[L(+)-tartrate]]
remaining activity at 1.25 µM ([1]; Well no.=810): 96.7%
remaining activity at 3.75 µM ([2]; Well no.=810): 96.3%

CC(=O)CCCCn1c(=O)c2c(ncn2C)n(C)c1=O [Pentoxifylline]
remaining activity at 1.25 µM ([1]; Well no.=1046): 92.7%
remaining activity at 1.25 µM ([1]; Well no.=2101): 101%
remaining activity at 3.75 µM ([2]; Well no.=1046): 94.8%
remaining activity at 3.75 µM ([2]; Well no.=2101): 100%

C1CCc2nnnn2CC1 [Pentylenetetrazole]
remaining activity at 1.25 µM ([1]; Well no.=1054): 97.5%
remaining activity at 3.75 µM ([2]; Well no.=1054): 99.6%

CC(C)CC(=O)N[C@H](C(=O)N[C@H](C(=O)N[C@@H](CC(C)C)[C@@H](O)CC(=O)N[C@@H](C)C(=O)N[C@@H](CC(C)C)[C@@H](O)CC(=O)O)C(C)C)C(C)C [Pepstatin A] (Isovaleryl-VV[Sta]A[Sta]-OH)
remaining activity at 1.25 µM ([1]; Well no.=8764): 91.3%
remaining activity at 3.75 µM ([2]; Well no.=8764): 92.8%

CCCN1C[C@H](CSC)C[C@@H]2c3cccc4[nH]cc(c34)C[C@H]21 [Pergolide mesylate]
remaining activity at 1.25 µM ([1]; Well no.=1602): 94.9%
remaining activity at 3.75 µM ([2]; Well no.=1602): 97.1%

CCCN1C[C@H](CSC)C[C@@H]2c3cccc4[nH]cc(c34)C[C@H]21 [Pergolide methanesulfonate]
remaining activity at 1.25 µM ([1]; Well no.=1257): 112%
remaining activity at 3.75 µM ([2]; Well no.=1257): 111%

C1CCC(C(CC2CCCCN2)C2CCCCC2)CC1 (stereo not shown) [Perhexiline maleate salt]
remaining activity at 1.25 µM ([1]; Well no.=5958): 97.2%
remaining activity at 3.75 µM ([2]; Well no.=5958): 95.4%

C=C(C)[C@@H]1CC=C(C(=O)O)CC1 [Perillic acid]
remaining activity at 1.25 µM ([1]; Well no.=3429): 93.1%
remaining activity at 3.75 µM ([2]; Well no.=3429): 93.2%

CCC[C@H](N[C@@H](C)C(=O)N1[C@H](C(=O)O)C[C@@H]2CCCC[C@@H]21)C(=O)OCC [Perindopril (erbumine)]
remaining activity at 1.25 µM ([1]; Well no.=8070): 106%
remaining activity at 3.75 µM ([2]; Well no.=8070): 102%

CCC[C@H](N[C@@H](C)C(=O)N1[C@H](C(=O)O)C[C@@H]2CCCC[C@@H]21)C(=O)OCC [Perindopril Erbumine]
remaining activity at 1.25 µM ([1]; Well no.=8778): 89.7%
remaining activity at 3.75 µM ([2]; Well no.=8778): 84.8%

OCCN1CCN(CCCN2c3ccccc3Sc3ccc(Cl)cc32)CC1 [Perphenazine]
remaining activity at 1.25 µM ([1]; Well no.=1006): 98.7%
remaining activity at 1.25 µM ([1]; Well no.=6319): 104%
remaining activity at 3.75 µM ([2]; Well no.=1006): 99.2%
remaining activity at 3.75 µM ([2]; Well no.=6319): 99.7%

CO[C@H]1[C@H](O)[C@H](O[C@H]2CC[C@@]3(C=O)[C@H](CC[C@@H]4[C@@H]3CC[C@]3(C)[C@@H](C5=CC(=O)OC5)CC[C@]43O)C2)O[C@@H](C)[C@@H]1O [Peruvoside]
remaining activity at 1.25 µM ([1]; Well no.=3687): 97.8%
remaining activity at 3.75 µM ([2]; Well no.=3687): 102%

NCC(CP(=O)(O)O)c1ccc(Cl)cc1 (stereo not shown) [Phaclofen]
remaining activity at 1.25 µM ([1]; Well no.=1167): 103%
remaining activity at 3.75 µM ([2]; Well no.=1167): 104%

CCOc1ccc(NC(C)=O)cc1 [Phenacetin]
remaining activity at 1.25 µM ([1]; Well no.=4948): 98.7%
remaining activity at 3.75 µM ([2]; Well no.=4948): 93.7%

N=C(NC(=O)c1nc(Cl)c(N)nc1N)Nc1ccccc1 [Phenamil methanesulfonate]
remaining activity at 1.25 µM ([1]; Well no.=1313): 101%
remaining activity at 3.75 µM ([2]; Well no.=1313): 99.6%

NNCCc1ccccc1 [Phenelzine sulfate]
remaining activity at 1.25 µM ([1]; Well no.=1203): 99.6%
remaining activity at 3.75 µM ([2]; Well no.=1203): 98.7%

N=C(N)NC(=N)NCCc1ccccc1 [Phenformin HCl]
remaining activity at 1.25 µM ([1]; Well no.=4908): 100%
remaining activity at 3.75 µM ([2]; Well no.=4908): 98.5%
